“Also recorded” adds a separate entry of the source. Like-named read-outs stand apart in the source and are kept apart here. Square brackets hold non-standard residues; d marks the D form. Ends that are not written are not given here. Peptide text beside a SMILES is read from it. Cit = NC(=O)NCCC[C@H](N)C(=O)O
Assays:
PBMCs from RA patients = experiment: Cellular stimulation assay: PBMCs incubated with individual peptides DMB 1001-DMB 1010, cytokines in supernatant by AlphaLisa; format: cell-based, human; settings: peptide 10 μg/ml, 20 hrs incubation
Experimental: Experiment 1: Cytokine Production after Stimulation of PBMCs from RA Patients with Individual Peptides DMB 1001-DMB 1010
Experimental setting: Peripheral blood mononuclear cells (PBMCs) were prepared from freshly collected blood using a Ficoll gradient method. The cellular stimulation assay was performed by incubation of PBMCs with the individual peptides DMB 1001-DMB 1010 at a concentration of 10 μg/ml. Approximately 300,000 to 500,000 PBMC cells were used for each stimulation assay in a cell culture AIM V serum free medium (Life Technologies) within a 96 well round bottom plate. TNFα, IL6 and IL1b concentrations in culture supernatants were determined using the AlphaLisa® method after 20 hrs of incubation.

PBMCs = experiment: Cellular stimulation assay: PBMCs incubated with individual peptides DMB 1011 to DMB 1016, TNFα and IL6 by AlphaLisa; format: cell-based, human; settings: for Stimulation response of peptides with same sequence but only one or two citrullines (in words): compared with fully citrullinated peptide; for Stimulation of cells to produce TNF and IL-6 (in words): fibrinogen based peptides with 3 citrulline residues
Experimental: Experiment 2. Cytokine Production after PBMC Stimulation Using Individual Peptides from DMB 1011 to DMB 1016
Experimental setting: Peripheral blood mononuclear cells (PBMCs) were prepared from freshly collected blood using a Ficoll gradient method. The cellular stimulation assay was performed by incubating PBMCs with individual peptides DMB 1011 to DMB 1016. Approximately 300,000 to 500,000 PBMC cells were used for each stimulation assay in a cell culture AIM V serum free medium (Life Technologies) within a 96 well round bottom plate. Concentrations of TNFα and IL6 in culture supernatants were determined after 20 hrs incubation using the AlphaLisa® method.

[1] = Peptide solubility in water; format: physicochemical

Molecule | TNFα concentration in culture supernatant (PBMCs from RA patients; PBMC Sample 1) [pg/mL] | TNFα concentration in culture supernatant (PBMCs from RA patients; PBMC Sample 2) [pg/mL] | other results
KIHAREIFDSRGNPTVE [DMB 1010, Alpha enolase peptide, not citrullinated] | 2.3 | 3.6 | –
HQCHQEST[Cit]GRSRGRCGRSGS (cysteine pairing not given here) [DMB 1005] | 2.1 | 3.6 | –
GGVYATRSSAV[Cit]L[Cit]SSVP [DMB 1013] | – | – | Stimulation response of peptides with same sequence but only one or two citrullines (in words) (PBMCs): greatly diminished
GPRVVERHQSACKDS [DMB 1008, Fibrinogen alpha chain peptide, not citrullinated] | 7.1 | 7.5 | –
GGVYATRSSAV[Cit]LRSSVP [DMB 1014] | – | – | Stimulation response of peptides with same sequence but only one or two citrullines (in words) (PBMCs): greatly diminished; Stimulation of cells to produce TNF and IL-6 (in words) (PBMCs): failed to stimulate cells
GP[Cit]VVE[Cit]HQSACKDS [DMB 1007] | 4.3 | 4.6 | –
GGV[Cit]GP[Cit]VVE[CIT]HQSACKD (GGV[Cit]GP[Cit]VVE[Cit]HQSACKD) [DMB 1015] | – | – | Stimulation of cells to produce TNF and IL-6 (in words) (PBMCs): failed to stimulate cells
CC(C)C[C@H](NC(=O)[C@H](CCCNC(N)=O)NC(=O)[C@@H](NC(=O)[C@H](C)NC(=O)[C@H](CO)NC(=O)[C@H](CO)NC(=O)[C@H](CCCNC(N)=O)NC(=O)[C@@H](NC(=O)[C@H](C)NC(=O)[C@H](Cc1ccc(O)cc1)NC(=O)[C@@H](NC(=O)CNC(=O)CN)C(C)C)[C@@H](C)O)C(C)C)C(=O)N[C@@H](CCCNC(N)=O)C(=O)N[C@@H](CO)C(=O)N[C@@H](CO)C(=O)N[C@H](C(=O)N1CCC[C@H]1C(=O)O)C(C)C [DMB 1011, GGVYAT[Cit]SSAV[Cit]L[Cit]SSVP] | – | – | Water solubility (in words) [1]: improved the peptide solubility in water; also recorded: water soluble; Water solubility (in words) ([1]; listed as SEQ ID NO: 11): increases the water solubility
CC(C)C[C@H](NC(=O)[C@H](CCCNC(N)=O)NC(=O)[C@@H](NC(=O)[C@H](C)NC(=O)[C@H](CO)NC(=O)[C@H](CO)NC(=O)[C@H](CCCNC(N)=O)NC(=O)[C@@H](NC(=O)[C@H](C)NC(=O)[C@H](Cc1ccc(O)cc1)NC(=O)[C@@H](N)C(C)C)[C@@H](C)O)C(C)C)C(=O)N[C@@H](CCCNC(N)=O)C(=O)N[C@@H](CO)C(=O)N[C@@H](CO)C(=O)N[C@H](C(=O)N1CCC[C@H]1C(=O)O)C(C)C [DMB 1001, VYAT[Cit]SSAV[Cit]L[Cit]SSVP] (H-VYAT[Cit]SSAV[Cit]L[Cit]SSVP-OH; N-terminus and C-terminus assumed) | – | – | Water solubility (in words) [1]: not water soluble
HQCHQESTRGRSRGRCGRSGS [DMB 1006, Filaggrin peptide, not citrullinated] | 2.7 | 7.6 | –
lipopolysaccharide [LPS, reference compound] | 1708.9 | 508.9 | –
NEEGFFSA[Cit]GHRPLDKK [DMB 1003] | 4.1 | 2.2 | –
GGVYAT[Cit]SSAVRL[Cit]SSVP [DMB 1012] | – | – | Stimulation response of peptides with same sequence but only one or two citrullines (in words) (PBMCs): greatly diminished
KIHA[Cit]EIFDS[Cit]GNPTVE [DMB 1009] | 5.0 | 6.4 | –
VYATRSSAVRLRSSVP [DMB 1002, Vimentin-derived peptide, not citrullinated] | 7.7 | 2.7 | IL1b concentration in cell culture (PBMCs from RA patients; PBMC Sample 1): 1; IL6 concentration in cell culture (PBMCs from RA patients; PBMC Sample 1): 0; IL1b concentration in cell culture (PBMCs from RA patients; PBMC Sample 2): 0; IL6 concentration in cell culture (PBMCs from RA patients; PBMC Sample 2): 0
NEEGFFSARGHRPLDKK [DMB 1004, Fibrinogen beta chain peptide, not citrullinated] | 2.5 | 6.7 | –

From patent US20140227303A1, “METHODS FOR DIAGNOSING AND MONITORING DISEASES OR CONDITIONS USING DISEASE MODIFIED BIOMOLECULES AND MEASUREMENT OF A FUNCTIONAL IMMUNE RESPONSE” (VIRACOR-IBT LABORATORIES, priority 2011, published 2014)
